Experiments:
NBD1 = biological target: T1, NBD1 (Homo sapiens, UniProt P13569); assay: Aggregation analysis using differential static light scattering (DSLS), thermal stability of NBD1 (ΔTagg); type: binding; conditions: ΔTagg versus DMSO control, NBD1 0.2 mg/ml
T1 construct: Purified recombinant NBD1 was produced using previously described methods; made in house
Procedure, shortened: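 NBD1 0.2 mg/ml, S200 buffer (50 mM Tris-HCl, 150 mM NaCl, 5 mM MgCl2, 2 mM ATP, 2 mM DTT, pH7.6) + 1% glycerol; cpd in DMSO; oil overlay. Ramp 25→70° C. at 1° C./min, DSLS images every 0.5° C. ΔTagg = Tagg (inflection) − mean DMSO Tagg.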

CFTR = biological target: T2, CFTR (Homo sapiens, UniProt P13569, DEL508-508); assay: TECC24 AUC fold over DMSO @10 μM, CFTR-mediated transepithelial chloride transport in CF-HBE cells; type: cell-based; conditions: test agent AUC divided by DMSO vehicle AUC, primary CF-HBE cells, ΔF508 homozygous donor, 48 hours incubation
T2 construct: Primary human bronchial epithelial cells from a ΔF508 homozygous CF donor; host or cells: primary human bronchial epithelial cells (CF-HBE), ΔF508 homozygous donor
T2 sequence (P13569 with tags, fused parts or gaps DEL508-508): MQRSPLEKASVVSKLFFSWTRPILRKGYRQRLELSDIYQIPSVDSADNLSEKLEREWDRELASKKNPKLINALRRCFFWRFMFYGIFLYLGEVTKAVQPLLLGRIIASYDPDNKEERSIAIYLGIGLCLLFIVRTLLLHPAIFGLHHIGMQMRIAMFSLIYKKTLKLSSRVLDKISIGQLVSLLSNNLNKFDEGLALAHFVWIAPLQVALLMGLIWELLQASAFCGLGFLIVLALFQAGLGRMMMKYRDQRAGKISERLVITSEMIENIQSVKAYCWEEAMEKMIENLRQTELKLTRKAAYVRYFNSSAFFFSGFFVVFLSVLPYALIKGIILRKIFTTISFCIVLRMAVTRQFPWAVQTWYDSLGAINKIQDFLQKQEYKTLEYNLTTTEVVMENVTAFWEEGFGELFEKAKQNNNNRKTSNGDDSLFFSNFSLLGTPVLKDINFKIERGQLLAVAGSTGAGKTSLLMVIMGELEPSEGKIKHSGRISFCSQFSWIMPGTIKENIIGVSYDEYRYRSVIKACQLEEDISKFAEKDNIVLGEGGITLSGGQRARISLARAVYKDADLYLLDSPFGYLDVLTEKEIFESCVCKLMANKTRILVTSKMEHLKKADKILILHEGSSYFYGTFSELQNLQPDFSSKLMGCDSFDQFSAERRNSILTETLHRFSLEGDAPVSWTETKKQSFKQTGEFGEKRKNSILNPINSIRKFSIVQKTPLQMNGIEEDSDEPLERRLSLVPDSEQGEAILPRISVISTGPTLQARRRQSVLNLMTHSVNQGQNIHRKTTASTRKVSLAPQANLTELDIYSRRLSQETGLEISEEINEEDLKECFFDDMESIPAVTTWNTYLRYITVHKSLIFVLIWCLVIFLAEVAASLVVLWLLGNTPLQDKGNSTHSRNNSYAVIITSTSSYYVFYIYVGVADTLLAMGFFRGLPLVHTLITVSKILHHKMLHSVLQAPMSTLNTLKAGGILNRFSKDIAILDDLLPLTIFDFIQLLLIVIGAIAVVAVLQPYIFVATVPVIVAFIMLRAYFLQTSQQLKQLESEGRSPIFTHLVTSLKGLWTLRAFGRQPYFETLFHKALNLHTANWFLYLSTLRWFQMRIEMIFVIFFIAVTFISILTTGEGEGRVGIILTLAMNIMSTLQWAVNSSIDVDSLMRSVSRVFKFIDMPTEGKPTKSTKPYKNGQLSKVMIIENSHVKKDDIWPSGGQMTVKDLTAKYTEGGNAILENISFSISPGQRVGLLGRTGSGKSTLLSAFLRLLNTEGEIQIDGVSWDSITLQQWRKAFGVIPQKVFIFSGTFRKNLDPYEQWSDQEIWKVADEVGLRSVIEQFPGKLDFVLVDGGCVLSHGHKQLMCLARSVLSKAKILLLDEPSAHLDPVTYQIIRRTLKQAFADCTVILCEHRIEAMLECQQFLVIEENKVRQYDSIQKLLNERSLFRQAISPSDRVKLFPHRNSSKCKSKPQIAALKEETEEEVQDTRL
Procedure, shortened: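 Primary ΔF508-homozygous CF bronchial epithelial cells on inserts were incubated 48 h at 36.5 °C with compound in IL-13-containing medium. VT and TEER were then recorded in current-clamp mode (pH 7.4 HEPES bath) with benzamil 10 μM, forskolin 10 μM, then CFTR inhibitor-172 20 μM. The IEQ AUC between forskolin and inhibitor was divided by vehicle AUC.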

T1 sequence (P13569 423-646 limits assumed): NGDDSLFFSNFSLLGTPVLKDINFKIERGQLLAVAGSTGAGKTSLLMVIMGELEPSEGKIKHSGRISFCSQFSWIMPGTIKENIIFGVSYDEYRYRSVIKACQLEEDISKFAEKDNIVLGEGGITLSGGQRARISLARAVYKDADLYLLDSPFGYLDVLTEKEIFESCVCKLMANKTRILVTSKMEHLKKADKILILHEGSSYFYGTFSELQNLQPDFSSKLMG

C[C@H](Cc1cccc([C@@]2(C)CCCC(C)(C)CS(=O)(=O)CCc3c(c(F)c(F)c4[nH]ccc34)Sc3ccnc(c3)-c3nc2nn3C)c1)C(=O)O [Compound 270, (2R)-3-[3-[(6R)-21,22-difluoro-3,6,10,10-tetramethyl-12,12-dioxo-12λ6,24-dithia-3,4,19,28,30-pentazapentacyclo[23.3.1.12,5.015,23.016,20]triaconta-1(29),2(30),4,15,17,20,22,25,27-nonaen-6-yl]phenyl]-2-methyl-propanoic Acid] was tested, and the “DSLS 3D (100 μM ΔT)” value (NBD1) was “C (a value greater than 10 °C and less than or equal to 25 °C is marked “C”)” and the “TECC (AUC, 10 μM)” value (CFTR) was “B (a value between 12-20 is marked “B”)”.
In the case of Cn1nc2nc1-c1cc(ccn1)Sc1c(F)cc3[nH]ccc3c1CCS(=O)(=O)CC(C)(C)CCC[C@]2(C)c1cccc(CC2(C(=O)O)CC2)c1 [Compound 272, 1-[[3-[(6R)-22-Fluoro-3,6,10,10-tetramethyl-12,12-dioxo-12λ6,24-dithia-3,4,19,28,30-pentazapentacyclo[23.3.1.12,5.015,23.016,20]triaconta-1(29),2(30),4,15,17,20,22,25,27-nonaen-6-yl]phenyl]methyl]cyclopropanecarboxylic Acid], the “DSLS 3D (100 μM ΔT)” value (NBD1) is reported as “C (a value greater than 10 °C and less than or equal to 25 °C is marked “C”)” and the “TECC (AUC, 10 μM)” value (CFTR) is reported as “C (a value between 20 and 80 is marked “C”)”.
In the case of Cn1nc2nc1-c1cc(ccn1)Sc1c(F)cc3[nH]ccc3c1CCS(=O)(=O)CC(C)(C)CCC[C@]2(C)c1cccc(CC(C)(C)C(=O)O)c1 [Compound 273, 3-[3-[(6R)-22-Fluoro-3,6,10,10-tetramethyl-12,12-dioxo-12λ6,24-dithia-3,4,19,28,30-pentazapentacyclo[23.3.1.12,5.015,23.016,20]triaconta-1(29),2(30),4,15,17,20,22,25,27-nonaen-6-yl]phenyl]-2,2-dimethyl-propanoic Acid], the “DSLS 3D (100 μM ΔT)” value (NBD1) is reported as “C (a value greater than 10 °C and less than or equal to 25 °C is marked “C”)” and the “TECC (AUC, 10 μM)” value (CFTR) is reported as “B (a value between 12-20 is marked “B”)”.
With Cn1nc2nc1-c1cc(ccn1)Sc1c(F)c(F)c3[nH]ccc3c1CCS(=O)(=O)CC(C)(C)CCC[C@]2(C)c1cccc(CC(C)(C)C(=O)O)c1 [Compound 275, 3-[3-[(6R)-21,22-Difluoro-3,6,10,10-tetramethyl-12,12-dioxo-12λ6,24-dithia-3,4,19,28,30-pentazapentacyclo[23.3.1.12,5.015,23.016,20]triaconta-1(29),2(30),4,15,17,20,22,25,27-nonaen-6-yl]phenyl]-2,2-dimethyl-propanoic Acid] the “DSLS 3D (100 μM ΔT)” value (NBD1) was “C (a value greater than 10 °C and less than or equal to 25 °C is marked “C”)” and the “TECC (AUC, 10 μM)” value (CFTR) was “C (a value between 20 and 80 is marked “C”)”.
With Cn1nc2nc1-c1cc(ccn1)Sc1c(F)c(F)c3[nH]ccc3c1CCS(=O)(=O)CC(C)(C)CCC[C@]2(C)c1cccc(CCC(=O)O)c1 [Compound 276, 3-[3-[(6R)-21,22-difluoro-3,6,10,10-tetramethyl-12,12-dioxo-12λ6,24-dithia-3,4,19,28,30-pentazapentacyclo[23.3.1.12,5.015,23.016,20]triaconta-1(29),2(30),4,15,17,20,22,25,27-nonaen-6-yl]phenyl]propanoic Acid] the “DSLS 3D (100 μM ΔT)” value (NBD1) was “C (a value greater than 10 °C and less than or equal to 25 °C is marked “C”)” and the “TECC (AUC, 10 μM)” value (CFTR) was “B (a value between 12-20 is marked “B”)”.
In the case of C[C@@H](Cc1cccc([C@@]2(C)CCCC(C)(C)CS(=O)(=O)CCc3c(c(F)cc4[nH]ccc34)Sc3ccnc(c3)-c3nc2nn3C)c1F)C(=O)O [Compound 277, (2S)-3-[2-fluoro-3-[(6R)-22-fluoro-3,6,10,10-tetramethyl-12,12-dioxo-12λ6,24-dithia-3,4,19,28,30-pentazapentacyclo[23.3.1.12,5.015,23.016,20]triaconta-1(29),2(30),4,15,17,20,22,25,27-nonaen-6-yl]phenyl]-2-methyl-propanoic acid], the “DSLS 3D (100 μM ΔT)” value (NBD1) is reported as “C (a value greater than 10 °C and less than or equal to 25 °C is marked “C”)” and the “TECC (AUC, 10 μM)” value (CFTR) is reported as “A (a TECC value less than 12 is marked “A”)”.
For Cn1nc2nc1-c1cc(ccn1)[S+]([O-])c1c(F)cc3[nH]ccc3c1CCS(=O)(=O)CC(C)(C)CCC[C@]2(C)c1cccc(CC(C)(C)C(=O)O)c1 (stereo partly drawn) [Compound 278, 3-[3-[(6R)-22-fluoro-3,6,10,10-tetramethyl-12,12,24-trioxo-12λ6,24λ4-dithia-3,4,19,28,30-pentazapentacyclo[23.3.1.12,5.015,23.016,20]triaconta-1(29),2(30),4,15,17,20,22,25,27-nonaen-6-yl]phenyl]-2,2-dimethyl-propanoic Acid], the “DSLS 3D (100 μM ΔT)” value (NBD1) was “C (a value greater than 10 °C and less than or equal to 25 °C is marked “C”)” and the “TECC (AUC, 10 μM)” value (CFTR) was “C (a value between 20 and 80 is marked “C”)”.
For Cn1nc2nc1-c1cc(ccc1F)Sc1c(F)c(F)c3[nH]ccc3c1CCS(=O)(=O)CC(C)(C)CCC[C@]2(C)c1cccc(CC(C)(C)C(=O)O)c1 [Compound 279, 2,2-Dimethyl-3-[3-[(6R)-21,22,28-trifluoro-3,6,10,10-tetramethyl-12,12-dioxo-12λ6,24-dithia-3,4,19,30-tetrazapentacyclo[23.3.1.12,5.015,23.016,20]triaconta-1(29),2(30),4,15,17,20,22,25,27-nonaen-6-yl]phenyl]propanoic Acid], the “DSLS 3D (100 μM ΔT)” value (NBD1) was “C (a value greater than 10 °C and less than or equal to 25 °C is marked “C”)” and the “TECC (AUC, 10 μM)” value (CFTR) was “C (a value between 20 and 80 is marked “C”)”.
For Cn1nc2nc1-c1cc(ccc1F)[S+]([O-])c1c(F)c(F)c3[nH]ccc3c1CCS(=O)(=O)CC(C)(C)CCC[C@]2(C)c1cccc(CC(C)(C)C(=O)O)c1 (stereo partly drawn) [Compound 280, 2,2-dimethyl-3-[3-[(6R)-21,22,28-trifluoro-3,6,10,10-tetramethyl-12,12,24-trioxo-12λ6,24λ4-dithia-3,4,19,30-tetrazapentacyclo[23.3.1.12,5.015,23.016,20]triaconta-1(29),2(30),4,15,17,20,22,25,27-nonaen-6-yl]phenyl]propanoic Acid], the “DSLS 3D (100 μM ΔT)” value (NBD1) was “C (a value greater than 10 °C and less than or equal to 25 °C is marked “C”)” and the “TECC (AUC, 10 μM)” value (CFTR) was “C (a value between 20 and 80 is marked “C”)”.
Cn1nc2nc1-c1cc(ccn1)Sc1c(F)c(F)c3[nH]ccc3c1CCS(=O)(=O)CC(C)(C)CCC[C@]2(C)c1cccc(C[C@@H](O)CO)c1 [Compound 282, (2R)-3-[3-[(6R)-21,22-difluoro-3,6,10,10-tetramethyl-12,12-dioxo-12λ6,24-dithia-3,4,19,28,30-pentazapentacyclo[23.3.1.12,5.015,23.016,20]triaconta-1(29),2(30),4,15,17,20,22,25,27-nonaen-6-yl]phenyl]propane-1,2-diol] was tested, and the “DSLS 3D (100 μM ΔT)” value (NBD1) was “C (a value greater than 10 °C and less than or equal to 25 °C is marked “C”)” and the “TECC (AUC, 10 μM)” value (CFTR) was “C (a value between 20 and 80 is marked “C”)”.
C[C@@H](Cc1cccc([C@@]2(C)CCCC(C)(C)CS(=O)(=O)CCc3c(c(F)cc4[nH]ccc34)[S+]([O-])c3ccnc(c3)-c3nc2nn3C)c1F)C(=O)O (stereo partly drawn) [Compound 283, (2S)-3-[2-fluoro-3-[(6R)-22-fluoro-3,6,10,10-tetramethyl-12,12,24-trioxo-12λ6,24λ4-dithia-3,4,19,28,30-pentazapentacyclo[23.3.1.12,5.015,23.016,20]triaconta-1(29),2(30),4,15,17,20,22,25,27-nonaen-6-yl]phenyl]-2-methyl-propanoic Acid] was tested, and the “DSLS 3D (100 μM ΔT)” value (NBD1) was “C (a value greater than 10 °C and less than or equal to 25 °C is marked “C”)” and the “TECC (AUC, 10 μM)” value (CFTR) was “C (a value between 20 and 80 is marked “C”)”.
For Cn1nc2nc1-c1cc(ccc1F)[S+]([O-])c1c(F)cc3[nH]ccc3c1CCS(=O)(=O)CC(C)(C)CCC[C@]2(C)c1cccc(C[C@H](O)CO)c1 (stereo partly drawn) [Compound 286, (2S)-3-[3-[(6R)-22,28-difluoro-3,6,10,10-tetramethyl-12,12,24-trioxo-12λ6,24λ4-dithia-3,4,19,30-tetrazapentacyclo[23.3.1.12,5.015,23.016,20]triaconta-1(29),2(30),4,15,17,20,22,25,27-nonaen-6-yl]phenyl]propane-1,2-diol], the “DSLS 3D (100 μM ΔT)” value (NBD1) was “C (a value greater than 10 °C and less than or equal to 25 °C is marked “C”)” and the “TECC (AUC, 10 μM)” value (CFTR) was “C (a value between 20 and 80 is marked “C”)”.
In the case of Cn1nc2nc1-c1cc(ccc1F)Sc1c(F)cc3[nH]ccc3c1CCS(=O)(=O)CC(C)(C)CCC[C@]2(C)c1cccc(C[C@H](O)CO)c1 [Compound 287, (2S)-3-[3-[(6R)-22,28-difluoro-3,6,10,10-tetramethyl-12,12-dioxo-12λ6,24-dithia-3,4,19,30-tetrazapentacyclo[23.3.1.12,5.015,23.016,20]triaconta-1(29),2(30),4,15,17,20,22,25,27-nonaen-6-yl]phenyl]propane-1,2-diol], the “DSLS 3D (100 μM ΔT)” value (NBD1) is reported as “C (a value greater than 10 °C and less than or equal to 25 °C is marked “C”)” and the “TECC (AUC, 10 μM)” value (CFTR) is reported as “C (a value between 20 and 80 is marked “C”)”.
For Cn1nc2nc1-c1cc(ccc1F)Oc1c(F)cc3[nH]ccc3c1CCS(=O)(=O)CC(C)(C)CCC[C@]2(C)c1cccc(CC2(C(=O)O)CC2)c1 [Compound 288, 1-[[3-[(6R)-22,28-difluoro-3,6,10,10-tetramethyl-12,12-dioxo-24-oxa-12λ6-thia-3,4,19,30-tetrazapentacyclo[23.3.1.12,5.015,23.016,20]triaconta-1(29),2(30),4,15,17,20,22,25,27-nonaen-6-yl]phenyl]methyl]cyclopropanecarboxylic Acid], the “DSLS 3D (100 μM ΔT)” value (NBD1) was “C (a value greater than 10 °C and less than or equal to 25 °C is marked “C”)” and the “TECC (AUC, 10 μM)” value (CFTR) was “C (a value between 20 and 80 is marked “C”)”.

From US12649750B2, “Macrocyclic compounds, compositions, and methods of using thereof” (Sionna Therapeutics Inc., priority 2022, dated 2026)
